Data set [1] concerns HUVEC. As to the kind of experiment: Inhibition of HMGB1-induced hyperpermeability of Evans blue-bound albumin in human HUVEC at 10 uM after 6 hrs by spectrophotometric analysis relative to control. It counts as functional.
The subject of data set [2] is Mus musculus. As to the kind of experiment: Antiinflammatory activity in mouse assessed as inhibition of HMGB1-induced leukocyte migration into peritoneal cavity at 402.4 ug/kg administered 16 hrs after HMGB1 challenge measured after 6 hrs by light microscopic analysis. Type of data set: functional.
Data set [3] has as its system Mus musculus. As to the kind of experiment: Antiinflammatory activity in mouse assessed as inhibition of HMGB1-induced hyperpermeability of Evans blue dye to peritoneal cavity at 402.4 ug/kg administered 16 hrs after HMGB1 challenge measured after 6 hrs. It counts as functional.
Data set [4] has as its system HUVEC. As to the kind of experiment: Cytotoxicity against human HUVEC assessed as cell viability up to 20 uM after 24 hrs. Type of data set: cell-based.
Data set [5] deals with HUVEC. As to the kind of experiment: Antiinflammatory activity in human HUVEC assessed as inhibition of HMGB1-induced human neutrophils migration into cells at 10 uM after 6 hrs using crystal violet staining. Type of data set: functional.
Data set [6] has as its system Mus musculus. As to the kind of experiment: Antiinflammatory activity in mouse assessed as inhibition of HMGB1-induced hyperpermeability of Evans blue dye to peritoneal cavity at 372.4 ug/kg administered 16 hrs after HMGB1 challenge measured after 6 hrs. Type of data set: functional.
Data set [7] has as its system Mus musculus. As to the kind of experiment: Antiinflammatory activity in mouse assessed as inhibition of HMGB1-induced leukocyte migration into peritoneal cavity at 372.4 ug/kg administered 16 hrs after HMGB1 challenge measured after 6 hrs by light microscopic analysis. Type of data set: functional.
The test system of data set [8] is Mus musculus. As to the kind of experiment: Antiinflammatory activity in mouse assessed as inhibition of HMGB1-induced hyperpermeability of Evans blue dye to peritoneal cavity at 342.4 ug/kg administered 16 hrs after HMGB1 challenge measured after 6 hrs. Type of data set: functional.
Data set [9] relates to Mus musculus. As to the kind of experiment: Antiinflammatory activity in mouse assessed as inhibition of HMGB1-induced leukocyte migration into peritoneal cavity at 342.4 ug/kg administered 16 hrs after HMGB1 challenge measured after 6 hrs by light microscopic analysis. Type of data set: functional.
The subject of data set [10] is Mus musculus. As to the kind of experiment: Antiinflammatory activity in mouse assessed as inhibition of HMGB1-induced hyperpermeability of Evans blue dye to peritoneal cavity at 403.4 ug/kg administered 16 hrs after HMGB1 challenge measured after 6 hrs. Type of data set: functional.
Data set [11] concerns Mus musculus. As to the kind of experiment: Antiinflammatory activity in mouse assessed as inhibition of HMGB1-induced leukocyte migration into peritoneal cavity at 403.4 ug/kg administered 16 hrs after HMGB1 challenge measured after 6 hrs by light microscopic analysis. Type of data set: functional.

The structures appear in SMILES notation.

As for `COc1cc(/C=C/C(=O)Nc2ccc3[nH]c4ccccc4c3c2)cc(OC)c1OC`, the inhibition at 10 µM came to 68.4% in data set [1] and 62% in [5]. Also, the inhibition in vivo at 0.4024 mg/kg in data set [2] was 60.3%; in [3], 57.5%. The Activity entry in [4] is given as “Non-toxic”.
As to `COc1ccc(/C=C/C(=O)Nc2ccc3[nH]c4ccccc4c3c2)cc1OC`, the inhibition at 10 µM in [1] came out at 42.9%; in data set [5] it was 43.5%. The inhibition in vivo at 0.3724 mg/kg in data set [6] is 26.2%; in data set [7], 39%. The Activity result in data set [4] was “Non-toxic”.
`COc1ccc(/C=C/C(=O)Nc2ccc3[nH]c4ccccc4c3c2)cc1`: the inhibition at 10 µM was found to be 3.6% in data set [1] and 4.8% in data set [5]. Further, the values for the inhibition in vivo at 0.3424 mg/kg in [8] and in data set [9] were 1.4% and 0.8%, respectively. For the same compound, in data set [4], the Activity entry is listed as “Non-toxic”.
As for `COc1cc(/C=C/C(=O)Oc2ccc3[nH]c4ccccc4c3c2)cc(OC)c1OC`, the inhibition at 10 µM in data set [1] worked out at 70.2%; in data set [5], 65.4%. Moreover, the inhibition in vivo at 0.4034 mg/kg in data set [10] stood at 58.9%; in data set [11] it was 61.2%. The Activity entry in data set [4] is recorded as “Non-toxic”.

These data come from ChEMBL document CHEMBL3621066, “Vascular barrier protective effects of 3-N- or 3-O-cinnamoyl carbazole derivatives” (Bioorg Med Chem Lett, 2015).
